In patent US11802111B2, “Cyclobutyl amide monoacylglycerol lipase modulators” (Janssen Pharmaceutica NV, priority 2020, dated 2023):

Each compound was assayed against human MGL from HeLa cells (Homo sapiens (Human), UniProt Q99685) (assay: MGL in vitro activity assay ([glycerol-1,3-3H]-oleoyl glycerol hydrolysis, activated carbon filtration)). Conditions: 300 nM [Glycerol-1,3-3H]-oleoyl glycerol, one hour.
Type: biochemical
In short: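 Activity measured as tritium in the flow-through after activated carbon filtration of a 1 h reaction containing 300 nM 3H-oleoyl glycerol, compound and HeLa-derived human MGL. Compounds screened at 10 μM; IC50 series start at an empirically chosen highest concentration.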

Chain of human MGL from HeLa cells (Q99685 whole entry): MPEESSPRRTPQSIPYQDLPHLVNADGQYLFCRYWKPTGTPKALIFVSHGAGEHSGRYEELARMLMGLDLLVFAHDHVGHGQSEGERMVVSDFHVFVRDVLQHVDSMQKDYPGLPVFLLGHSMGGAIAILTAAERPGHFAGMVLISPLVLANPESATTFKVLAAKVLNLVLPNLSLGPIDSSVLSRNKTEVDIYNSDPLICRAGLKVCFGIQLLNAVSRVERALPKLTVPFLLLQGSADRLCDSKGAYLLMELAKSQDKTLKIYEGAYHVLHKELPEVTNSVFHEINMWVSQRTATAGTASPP

| IC50 | Compound |
| --- | --- |
| 116 nM | C[C@]1(O)C[C@@H](C(=O)N2CC3(CCC(Oc4ccc(F)c(C5CC5)c4)C3)C2)C1 (mixture of isomers) [Example 335, (rac)-(6-(3-Cyclopropyl-4-fluorophenoxy)-2-azaspiro[3.4]octan-2-yl)((1s,3s)-3-hydroxy-3-methylcyclobutyl)methanone] |
| 91 nM | Cc1ccc(OC2CCC3(C2)CN(C(=O)[C@H]2C[C@@](C)(O)C2)C3)nc1C(F)(F)F (mixture of isomers) [Example 336, (rac)-((1s,3s)-3-Hydroxy-3-methylcyclobutyl)(6-((5-methyl-6-(trifluoromethyl)pyridin-2-yl)oxy)-2-azaspiro[3.4]octan-2-yl)methanone] |
| 48 nM | CC(C)c1cccc([C@@H]2CCC3(C2)CN(C(=O)[C@H]2C[C@@](C)(O)C2)C3C)c1 (relative stereo) [Example 318, ((1s,3*S)-3-Hydroxy-3-methylcyclobutyl)((6*R)-6-(3-isopropylphenyl)-1-methyl-2-azaspiro[3.4]octan-2-yl)methanone] |
| 60 nM | C[C@@H](c1ccccc1)[C@H]1CCC2(C1)CN(C(=O)[C@H]1C[C@@](C)(O)C1)C2 (relative stereo) [Example 338, ((1s,3*R)-3-Hydroxy-3-methylcyclobutyl)((*S)-6-((*R)-1-phenylethyl)-2-azaspiro[3.4]octan-2-yl)methanone] |
| 48 nM | C[C@H](c1ccccc1)[C@H]1CCC2(C1)CN(C(=O)[C@H]1C[C@@](C)(O)C1)C2 (relative stereo) [Example 339, ((1s,3*R)-3-Hydroxy-3-methylcyclobutyl)((*S)-6-((*S)-1-phenylethyl)-2-azaspiro[3.4]octan-2-yl)methanone] |
| 149 nM | C[C@@H](c1ccccc1)[C@@H]1CCC2(C1)CN(C(=O)[C@H]1C[C@@](C)(O)C1)C2 (single isomer, unassigned) [Example 337, ((1s,3*S)-3-Hydroxy-3-methylcyclobutyl)((*R)-6-((*R)-1-phenylethyl)-2-azaspiro[3.4]octan-2-yl)methanone] |
| 64 nM | COc1cc([C@@H]2CCC3(C2)CN(C(=O)[C@H]2C[C@@](C)(O)C2)C3)ccc1C (stereo in doubt) [Example 18, ((1s,3*S)-3-Hydroxy-3-methylcyclobutyl)((*R)-6-(3-methoxy-4-methylphenyl)-2-azaspiro[3.4]octan-2-yl)methanone] |
| 67 nM | COc1cc([C@H]2CCC3(C2)CN(C(=O)[C@H]2C[C@@](C)(O)C2)C3)ccc1C (stereo in doubt) [Example 19, ((1s,3*R)-3-Hydroxy-3-methylcyclobutyl)((*S)-6-(3-methoxy-4-methylphenyl)-2-azaspiro[3.4]octan-2-yl)methanone] |
| 4 nM | C[C@]1(O)C[C@@H](C(=O)N2CC3(CC[C@@H](c4cccc(C5CC5)c4F)C3)C2)C1 (stereo in doubt) [Example 25, ((*R)-6-(3-Cyclopropyl-2-fluorophenyl)-2-azaspiro[3.4]octan-2-yl)((1s,3*S)-3-hydroxy-3-methylcyclobutyl)methanone] |
| 28 nM | C[C@]1(O)C[C@@H](C(=O)N2CC3(CC[C@H](c4cccc(C5CC5)c4F)C3)C2)C1 (stereo in doubt) [Example 26, ((*S)-6-(3-Cyclopropyl-2-fluorophenyl)-2-azaspiro[3.4]octan-2-yl)((1s,3*R)-3-hydroxy-3-methylcyclobutyl)methanone] |
| 23 nM | C[C@]1(O)C[C@@H](C(=O)N2CC3(CC[C@@H](c4cccc(OC(F)(F)F)c4)C3)C2)C1 (stereo in doubt) [Example 41, ((1s,3*S)-3-Hydroxy-3-methylcyclobutyl)((*R)-6-(3-(trifluoromethoxy)phenyl)-2-azaspiro[3.4]octan-2-yl)methanone] |
| 22 nM | C[C@]1(O)C[C@@H](C(=O)N2CC3(CC[C@H](c4cccc(OC(F)(F)F)c4)C3)C2)C1 (stereo in doubt) [Example 42, ((1s,3*R)-3-Hydroxy-3-methylcyclobutyl)((*S)-6-(3-(trifluoromethoxy)phenyl)-2-azaspiro[3.4]octan-2-yl)methanone] |
| 9.8 nM | CC(C)(C)c1cccc([C@@H]2CCC3(C2)CN(C(=O)[C@H]2C[C@@](C)(O)C2)C3)c1 (stereo in doubt) [Example 44, ((*R)-6-(3-(tert-Butyl)phenyl)-2-azaspiro[3.4]octan-2-yl)((1s,3*S)-3-hydroxy-3-methylcyclobutyl)methanone] |
| 11 nM | CC(C)(C)c1cccc([C@H]2CCC3(C2)CN(C(=O)[C@H]2C[C@@](C)(O)C2)C3)c1 (stereo in doubt) [Example 45, ((*S)-6-(3-(tert-Butyl)phenyl)-2-azaspiro[3.4]octan-2-yl)((1s,3*R)-3-hydroxy-3-methylcyclobutyl)methanone] |
| 21 nM | CC(C)c1cccc([C@@H]2CCC3(C2)CN(C(=O)[C@H]2C[C@@](C)(O)C2)C3)c1 (stereo in doubt) [Example 47, ((1s,3*S)-3-Hydroxy-3-methylcyclobutyl)((*R)-6-(3-isopropylphenyl)-2-azaspiro[3.4]octan-2-yl)methanone] |
| 17 nM | CC(C)c1cccc([C@H]2CCC3(C2)CN(C(=O)[C@H]2C[C@@](C)(O)C2)C3)c1 (stereo in doubt) [Example 48, ((1s,3*R)-3-Hydroxy-3-methylcyclobutyl)((*S)-6-(3-isopropylphenyl)-2-azaspiro[3.4]octan-2-yl)methanone] |
| 10 nM | C[C@]1(O)C[C@@H](C(=O)N2CC3(CC[C@@H](c4ccc(OC(F)(F)F)cc4)C3)C2)C1 (stereo in doubt) [Example 53, ((1s,3*S)-3-Hydroxy-3-methylcyclobutyl)((*R)-6-(4-(trifluoromethoxy)phenyl)-2-azaspiro[3.4]octan-2-yl)methanone] |
| 10 nM | C[C@]1(O)C[C@@H](C(=O)N2CC3(CC[C@H](c4ccc(OC(F)(F)F)cc4)C3)C2)C1 (stereo in doubt) [Example 54, ((1s,3*R)-3-Hydroxy-3-methylcyclobutyl)((*S)-6-(4-(trifluoromethoxy)phenyl)-2-azaspiro[3.4]octan-2-yl)methanone] |
| 22 nM | C[C@]1(O)C[C@@H](C(=O)N2CC3(CC[C@@H](c4ccc(C(F)(F)F)cc4)C3)C2)C1 (stereo in doubt) [Example 56, ((1s,3*S)-3-Hydroxy-3-methylcyclobutyl)((*R)-6-(4-(trifluoromethyl)phenyl)-2-azaspiro[3.4]octan-2-yl)methanone] |
| 24 nM | C[C@]1(O)C[C@@H](C(=O)N2CC3(CC[C@H](c4ccc(C(F)(F)F)cc4)C3)C2)C1 (stereo in doubt) [Example 57, ((1s,3*R)-3-Hydroxy-3-methylcyclobutyl)((*S)-6-(4-(trifluoromethyl)phenyl)-2-azaspiro[3.4]octan-2-yl)methanone] |
| 37 nM | C[C@]1(O)C[C@@H](C(=O)N2CC3(CC[C@@H](c4cccc(C5CC5)c4)C3)C2)C1 (stereo in doubt) [Example 59, ((*R)-6-(3-Cyclopropylphenyl)-2-azaspiro[3.4]octan-2-yl)((1s,3*S)-3-hydroxy-3-methylcyclobutyl)methanone] |
| 25 nM | C[C@]1(O)C[C@@H](C(=O)N2CC3(CC[C@H](c4cccc(C5CC5)c4)C3)C2)C1 (stereo in doubt) [Example 60, ((*S)-6-(3-Cyclopropylphenyl)-2-azaspiro[3.4]octan-2-yl)((1s,3*R)-3-hydroxy-3-methylcyclobutyl)methanone] |
| 34 nM | C[C@]1(O)C[C@@H](C(=O)N2CC3(CC[C@@H](c4cccc(C(F)(F)F)c4)C3)C2)C1 (stereo in doubt) [Example 62, ((1s,3*S)-3-Hydroxy-3-methylcyclobutyl)((*R)-6-(3-(trifluoromethyl)phenyl)-2-azaspiro[3.4]octan-2-yl)methanone] |
| 22 nM | C[C@]1(O)C[C@@H](C(=O)N2CC3(CC[C@H](c4cccc(C(F)(F)F)c4)C3)C2)C1 (stereo in doubt) [Example 63, ((1s,3*R)-3-Hydroxy-3-methylcyclobutyl)((*S)-6-(3-(trifluoromethyl)phenyl)-2-azaspiro[3.4]octan-2-yl)methanone] |
| 8.1 nM | Cc1cc([C@@H]2CCC3(C2)CN(C(=O)[C@H]2C[C@@](C)(O)C2)C3)ccc1OC(F)F (stereo in doubt) [Example 73, ((*R)-6-(4-(Difluoromethoxy)-3-methylphenyl)-2-azaspiro[3.4]octan-2-yl)((1s,3*S)-3-hydroxy-3-methylcyclobutyl)methanone] |
| 6.8 nM | Cc1cc([C@H]2CCC3(C2)CN(C(=O)[C@H]2C[C@@](C)(O)C2)C3)ccc1OC(F)F (stereo in doubt) [Example 74, ((*S)-6-(4-(Difluoromethoxy)-3-methylphenyl)-2-azaspiro[3.4]octan-2-yl)((1s,3*R)-3-hydroxy-3-methylcyclobutyl)methanone] |
| 14 nM | C[C@]1(O)C[C@@H](C(=O)N2CC3(CC[C@H](Cc4cccc(C(F)(F)F)c4)C3)C2)C1 (stereo in doubt) [Example 177, ((1s,3*S)-3-Hydroxy-3-methylcyclobutyl)((*R)-6-(3-(trifluoromethyl)benzyl)-2-azaspiro[3.4]octan-2-yl)methanone] |
| 11 nM | C[C@]1(O)C[C@@H](C(=O)N2CC3(CC[C@@H](Cc4cccc(C(F)(F)F)c4)C3)C2)C1 (stereo in doubt) [Example 178, ((1s,3*R)-3-Hydroxy-3-methylcyclobutyl)((*S)-6-(3-(trifluoromethyl)benzyl)-2-azaspiro[3.4]octan-2-yl)methanone] |
| 33 nM | C[C@@H](c1ccccc1)C1CC2(C1)CN(C(=O)[C@H]1C[C@@](C)(O)C1)C2 (stereo in doubt) [Example 310, ((1s,3*S)-3-Hydroxy-3-methylcyclobutyl)(6-((*R)-1-phenylethyl)-2-azaspiro[3.3]heptan-2-yl)methanone] |
| 77 nM | C[C@H](c1ccccc1)C1CC2(C1)CN(C(=O)[C@H]1C[C@@](C)(O)C1)C2 (stereo in doubt) [Example 311, ((1s,3*R)-3-Hydroxy-3-methylcyclobutyl)(6-((*S)-1-phenylethyl)-2-azaspiro[3.3]heptan-2-yl)methanone] |
